Consider three compounds from ChEMBL document CHEMBL1153545 (Antimicrob Agents Chemother, 2007).

In brackets after ≈: the same amount, converted by molar mass. Activity calls are given as the source filed them. No cut-off for these calls is given here.

The subject of series [1] is Streptococcus pneumoniae. The experiment in a line: Antimicrobial activity against Streptococcus pneumoniae Spn-058 by broth macrodilution technique in presence of 5% lysed horse blood. The series is classed as functional.
The test system of series [2] is Streptococcus pneumoniae. The experiment in a line: Antimicrobial activity against Streptococcus pneumoniae Spn-058 infected in one-compartment pharmacodynamic system assessed as regrowth of bacteria administered at simulated at 500 mg QD dosage regimen measured on day 6. In kind it is functional, organism-based.
For series [3], the system named is Streptococcus pneumoniae. The experiment in a line: Antimicrobial activity against Streptococcus pneumoniae Spn-RC2 infected in one-compartment pharmacodynamic system assessed as decrease in bacterial population administered at simulated oral dose regimen of 500 mg in human for 10 days by quantitative culture assay. In kind it is functional, organism-based.
Series [4] is described as follows: Free AUC (0 to 24 hrs) in one-compartment pharmacodynamic system administered at simulated oral dose regimen of 500 mg in human for 10 days. In kind it is ADME.
Series [5] has as its system Streptococcus pneumoniae. The series can be described thus: Antimicrobial activity against Streptococcus pneumoniae Spn-RC2 infected in one-compartment pharmacodynamic system assessed as regrowth of bacteria administered at simulated at 750 mg dosage regimen every 12 hrs measured on day 3. In kind it is functional, organism-based.
Series [6] can be described thus: Stability assessed as degradation half life. In kind it is physicochemical.
The test system of series [7] is Streptococcus pneumoniae. The series can be described thus: Antimicrobial activity against Streptococcus pneumoniae Spn-058 infected in one-compartment pharmacodynamic system assessed as decrease in bacterial population administered at simulated at 750 mg dosage regimen every 12 hrs for 10 days by quantitative culture assay. The series is classed as functional, organism-based.

Series [8] can be described thus: Half life in one-compartment pharmacodynamic system administered at simulated oral dose regimen of 500 mg in human for 10 days. In kind it is ADME, organism-based.
Series [9] concerns Streptococcus pneumoniae. The series can be described thus: Antimicrobial activity against Streptococcus pneumoniae Spn-058 infected in one-compartment pharmacodynamic system assessed as reduction in bacterial density administered at simulated at 500 mg QD dosage regimen measured on day 1. In kind it is functional, organism-based.
Series [10] has as its system Streptococcus pneumoniae. The series can be described thus: Antimicrobial activity against Streptococcus pneumoniae Spn-058 infected in one-compartment pharmacodynamic system assessed as prevention of regrowth administered ciprofloxacin at simulated oral dose regimen of 750 mg in human every 12 hrs measured on day 10. In kind it is functional, organism-based.
Series [11] has as its system Streptococcus pneumoniae. The experiment in a line: Antimicrobial activity against Streptococcus pneumoniae Spn-058 infected in one-compartment pharmacodynamic system assessed as regrowth of bacteria administered at simulated oral dose regimen of 750 mg in human every 12 hrs measured on day 2. The series is classed as functional, organism-based.
The test system of series [12] is Streptococcus pneumoniae. The experiment in a line: Antimicrobial activity against Streptococcus pneumoniae Spn-RC2 by broth macrodilution technique.
Series [13] deals with Streptococcus pneumoniae. The experiment in a line: Antimicrobial activity against Streptococcus pneumoniae Spn-058 infected in one-compartment pharmacodynamic system assessed as reduction in bacterial density administered at simulated oral dose regimen of 750 mg in human every 12 hrs measured on day 1. The series is classed as functional, organism-based.
The subject of series [14] is Streptococcus pneumoniae. The series can be described thus: Inhibition of efflux pump in Streptococcus pneumoniae Spn-058 assessed as change in levofloxacin MIC at 20 ug/ml by broth macrodilution method.
Series [15] relates to Streptococcus pneumoniae. The series can be described thus: Inhibition of efflux pump in Streptococcus pneumoniae Spn-RC2 assessed as ethidium bromide uptake at 20 ug/ml.
Series [16] relates to Streptococcus pneumoniae. The experiment in a line: Inhibition of efflux pump in Streptococcus pneumoniae Spn-058 assessed as reduction in levofloxacin MIC by broth microdilution method. A general note: Dilution methods test growth across graded concentrations, often in twofold steps.
In series [17] the test system is Streptococcus pneumoniae. The experiment in a line: Inhibition of efflux pump in Streptococcus pneumoniae Spn-RC2 assessed as reduction in levofloxacin MIC by agar microdilution method.
Series [18] relates to Streptococcus pneumoniae. The series can be described thus: Inhibition of efflux pump in Streptococcus pneumoniae Spn-058 assessed as change in ciprofloxacin MIC at 20 ug/ml by broth macrodilution method.
In series [19] the test system is Streptococcus pneumoniae. The series can be described thus: Inhibition of efflux pump in Streptococcus pneumoniae Spn-RC2 assessed as reduction in levofloxacin at 20 ug/ml MIC by broth microdilution method.
The subject of series [20] is Streptococcus pneumoniae. The experiment in a line: Inhibition of efflux pump in Streptococcus pneumoniae Spn-058 assessed as ethidium bromide uptake at 20 ug/ml.
Series [21] relates to Streptococcus pneumoniae. The series can be described thus: Inhibition of efflux pump in Streptococcus pneumoniae Spn-058 infected in one-compartment pharmacodynamic system assessed as repid killing administered levofloxacin at simulated oral dose regimen of 750 mg in human every 24 hrs measured on day 10.
In series [22] the test system is Streptococcus pneumoniae. The series can be described thus: Induction of efflux pump expression in Streptococcus pneumoniae Spn-RC2 after 5 hrs by ethidium bromide uptake assay.
The test system of series [23] is Streptococcus pneumoniae. The experiment in a line: Inhibition of efflux pump in Streptococcus pneumoniae Spn-058 assessed as reduction in levofloxacin MIC by agar dilution method. For orientation: Agar dilution tests growth on a series of plates holding different concentrations.
For series [24], the system named is Streptococcus pneumoniae. The series can be described thus: Antimicrobial activity against Streptococcus pneumoniae Spn-058 at 5.5 to 8 log10 CFU/ml bacterial density measured within 24 hrs. In kind it is functional, organism-based.
In series [25] the test system is Streptococcus pneumoniae. The series can be described thus: Inhibition of ciprofloxacin-induced efflux pump expression in Streptococcus pneumoniae Spn-058 after 5 hrs by ethidium bromide uptake assay.
For series [26], the system named is Streptococcus pneumoniae. The experiment in a line: Inhibition of efflux pump in Streptococcus pneumoniae Spn-RC2 assessed as change in levofloxacin MIC by agar dilution method.
The subject of series [27] is Streptococcus pneumoniae. The series can be described thus: Inhibition of efflux pump in Streptococcus pneumoniae Spn-058 with harboring mutation in parC gene assessed as decrease in levofloxacin MIC.
Series [28] deals with Streptococcus pneumoniae. The series can be described thus: Inhibition of efflux pump in Streptococcus pneumoniae Spn-058 assessed as reduction in ciprofloxacin MIC by agar dilution method.
The test system of series [29] is Streptococcus pneumoniae. The series can be described thus: Inhibition of efflux pump in Streptococcus pneumoniae Spn-058 assessed as change in ciprofloxacin MIC by agar dilution method.
Series [30] relates to Streptococcus pneumoniae. The experiment in a line: Antimicrobial activity against Streptococcus pneumoniae Spn-RC2 infected in one-compartment pharmacodynamic system assessed as regrowth of bacteria administered at simulated at 750 mg dosage regimen every 12 hrs measured on day 8. In kind it is functional, organism-based.
Series [31] relates to Streptococcus pneumoniae. The series can be described thus: Inhibition of efflux pump in Streptococcus pneumoniae Spn-058 infected in one-compartment pharmacodynamic system assessed as repid killing administered levofloxacin at simulated oral dose regimen of 500 mg in human measured on day 6.
Series [32] relates to Streptococcus pneumoniae. The experiment in a line: Inhibition of efflux pump in Streptococcus pneumoniae Spn-RC2 assessed as change in ciprofloxacin MIC by agar dilution method.
For series [33], the system named is Streptococcus pneumoniae. The experiment in a line: Inhibition of efflux pump in Streptococcus pneumoniae Spn-058 assessed as reduction in ciprofloxacin MIC by broth microdilution method.
In series [34] the test system is Streptococcus pneumoniae. The experiment in a line: Inhibition of efflux pump in Streptococcus pneumoniae Spn-058 assessed as change in levofloxacin MIC by agar dilution method.
Series [35] has as its system Streptococcus pneumoniae. The series can be described thus: Inhibition of efflux pump in Streptococcus pneumoniae Spn-RC2 assessed as reduction in ciprofloxacin MIC by agar microdilution method.
The subject of series [36] is Streptococcus pneumoniae. The series can be described thus: Induction of efflux pump expression in Streptococcus pneumoniae Spn-058 after 5 hrs by ethidium bromide uptake assay.
Series [37] concerns Streptococcus pneumoniae. The experiment in a line: Antimicrobial activity against Streptococcus pneumoniae Spn-058 assessed as bacterial load. The series is classed as functional, organism-based.
In series [38] the test system is Streptococcus pneumoniae. The series can be described thus: Inhibition of efflux pump in ciprofloxacin pretreated Streptococcus pneumoniae Spn-RC2 at 20 ug/ml by ethidium bromide uptake assay.
The test system of series [39] is Streptococcus pneumoniae. The series can be described thus: Induction of efflux pump expression in Streptococcus pneumoniae Spn-058 harboring mutation in gyrA gene at 20 ug/ml.
Series [40] relates to Streptococcus pneumoniae. The series can be described thus: Inhibition of efflux pump in Streptococcus pneumoniae Spn-058 infected in one-compartment pharmacodynamic system assessed as repid killing administered levofloxacin at simulated oral dose regimen of 750 mg in human every 12 hrs measured on day 6.
In series [41] the test system is Streptococcus pneumoniae. The experiment in a line: Inhibition of efflux pump in Streptococcus pneumoniae Spn-RC2 assessed as reduction in ciprofloxacin MIC at 20 ug/ml by broth microdilution method.
For series [42], the system named is Streptococcus pneumoniae. The experiment in a line: Inhibition of efflux pump in Streptococcus pneumoniae Spn-058 harboring mutation in parC and […] gene assessed as decrease in ciprofloxacin MIC.
In series [43] the test system is Streptococcus pneumoniae. The experiment in a line: Antimicrobial activity against Streptococcus pneumoniae Spn-RC2 infected in one-compartment pharmacodynamic system assessed as decrease in bacterial density administered at simulated at 500 mg QD dosage regimen for 10 days measured after 24 hrs by quantitative culture assay. In kind it is functional, organism-based.

Series [44] concerns Streptococcus pneumoniae. The experiment in a line: Inhibition of efflux pump in Streptococcus pneumoniae Spn-058 with harboring Ser79Tyr mutation in parC gene assessed as decrease in ciprofloxacin MIC.

As to `C[C@H]1COc2c(N3CCN(C)CC3)c(F)cc3c(=O)c(C(=O)O)cn1c23.C[C@H]1COc2c(N3CCN(C)CC3)c(F)cc3c(=O)c(C(=O)O)cn1c23.O` [LEVOFLOXACIN], in the series on Streptococcus pneumoniae [1], the MBC amounted to 1 µg/mL. In addition, the outcome with Streptococcus pneumoniae [2] was inactive. Moreover, the result in the series with Streptococcus pneumoniae [3], in the series on Streptococcus pneumoniae [5], in the series with Streptococcus pneumoniae [7] and in the series with Streptococcus pneumoniae [9] was Active. Also, in [4], the fAUC was 36000 ng·h/mL. Moreover, the half-life in series [6] was 20 h; in series [8], 7 h.

In the case of `O=C(O)c1cn(C2CC2)c2cc(N3CCNCC3)c(F)cc2c1=O` [CIPROFLOXACIN], the MBC in the series on Streptococcus pneumoniae [1] amounted to 1 µg/mL. Further, the MIC in the series with Streptococcus pneumoniae [1] amounted to 1 µg/mL; against Streptococcus pneumoniae [12] it was 2 µg/mL (≈ 6.04 µM). The outcome in the series with Streptococcus pneumoniae [10], in the series with Streptococcus pneumoniae [5] and with Streptococcus pneumoniae [13] was Active. In addition, the result in the series on Streptococcus pneumoniae [11] was inactive.

`COC(=O)[C@H]1[C@H]2C[C@@H]3c4[nH]c5cc(OC)ccc5c4CCN3C[C@H]2C[C@@H](OC(=O)c2cc(OC)c(OC)c(OC)c2)[C@@H]1OC`: the result in the series on Streptococcus pneumoniae [14], in the series with Streptococcus pneumoniae [18], in the series with Streptococcus pneumoniae [30] and with Streptococcus pneumoniae [43] was inactive. The result in the series with Streptococcus pneumoniae [15], with Streptococcus pneumoniae [16], in the series with Streptococcus pneumoniae [17], in the series with Streptococcus pneumoniae [19], in the series on Streptococcus pneumoniae [20] and in the series with Streptococcus pneumoniae [10] was Active. For the same compound, the result in the series with Streptococcus pneumoniae [21], in the series with Streptococcus pneumoniae [22], in the series on Streptococcus pneumoniae [23], with Streptococcus pneumoniae [24], with Streptococcus pneumoniae [25] and in the series with Streptococcus pneumoniae [26] was Active. Moreover, the result in the series on Streptococcus pneumoniae [27], with Streptococcus pneumoniae [28], with Streptococcus pneumoniae [29], with Streptococcus pneumoniae [31], in the series on Streptococcus pneumoniae [32] and with Streptococcus pneumoniae [33] was Active. Moreover, the result in the series on Streptococcus pneumoniae [34], with Streptococcus pneumoniae [35], in the series on Streptococcus pneumoniae [36], in the series on Streptococcus pneumoniae [37], in the series with Streptococcus pneumoniae [38] and in the series with Streptococcus pneumoniae [39] was Active. Besides, the result in the series on Streptococcus pneumoniae [40], in the series with Streptococcus pneumoniae [41], with Streptococcus pneumoniae [42] and in the series on Streptococcus pneumoniae [44] was Active.

In general, MBC refers to the lowest tested concentration that kills the bacteria rather than only halting them. As usually defined, the half-life is how long it takes for the measured level to halve. Broadly, the MIC is the lowest concentration that inhibits growth of the organism.
